The text below walks through data of PMC5517430, “2,3,7,8-Tetrachlorodibenzo-p-dioxin (TCDD)-elicited effects on bile acid homeostasis: Alterations in biosynthesis, enterohepatic circulation, and microbial metabolism” (Scientific Reports, 2017).

The subject of data set [1] is serum ALP. Briefly: Serum alkaline phosphatase (ALP) activity, commercial kit. The data set is classed as in vivo, mouse. The note with it: male mice, 30 µg/kg TCDD every 4 d for 28 d. Here is the method: At 25d after the initial dose (PND53), fecal pellets from the previous 24 hours (h) were collected from each cage (4 mice per cage) and stored at −80 °C. At 28d after the initial exposure (PND56), mice (fasted for 6 h) were weighed and blood was collected from the submandibular vein prior to cervical dislocation. The gallbladder length, width, and depth were measured using a micro-caliper. Its volume was calculated assuming an ellipsoid shape: volume (µL) = length (mm) × width (mm) × depth (mm) × π/6[63], [64]. The distal ileum (10 cm section extending from the caecum toward the jejunum) was removed, flushed with Ca^2+/Mg^2+-free phosphate buffered saline (PBS; Sigma), and opened longitudinally. The epithelial lining was scraped into a vial containing TRIzol (Invitrogen, Carlsbad, CA), frozen in liquid nitrogen, and stored at −80 °C. Liver, gonadal white adipose tissue (gWAT), and brown adipose tissue were removed, weighed, frozen in liquid nitrogen, and stored at −80 °C. Serum alkaline phosphatase (ALP) activity was determined using a commercial kit (Pointe Scientific, Canton, MI).

Data set [2] relates to bile acid mixture. Nature of the data set: Hydrophobicity index (HIx) of bile acid mixtures in liver, serum and feces. The data set is classed as in vivo, mouse. The note with it: male mice. From the text:
In general, bile acid toxicity increases with hydrophobicity, [39], which depends on ionization, hydroxylation, and conjugation (taurine, glycine, sulfate, glucoronate)[40]. The potential toxicity of a bile acid mixture can be estimated by calculating the hydrophilic-hydrophobic balance using the hydrophobicity index (HIx) of each bile acid species in the mixture, as described by Heuman[41]. […] Consequently, the shift towards increased hydrophobicity is primarily driven by a decrease in the relative abundance of T-α-MCA, a highly hydrophilic species.

The subject of data set [3] is intestine of male C57BL/6 mice. Briefly: Sugar probe intestinal para-cellular permeability (UPLC-MS/MS of urine). The data set is classed as in vivo, mouse. The settings on record: 30 µg/kg TCDD every 4 d, 26 d after initial dose. Here is the method:
At 26d after the initial dose (PND54), mice were fasted for 4 h (without access to food or water) prior to oral gavage with 150 µL of a solution containing 100 mg sucrose, 12 mg lactulose, 8 mg mannitol, and 6 mg sucralose. Urine from each mouse was collected over a 5 h period, flash frozen, and combined prior to analysis. Urine was diluted in 95% acetonitrile/5% water: 100-fold for mannitol detection, 200-fold for sucrose and lactulose detection, and 500-fold for sucralose detection. Sugar probe recovery was measured using ultra high performance liquid chromatography-tandem mass spectrometry (UPLC-MS/MS), performed at the MSU RTSF Mass Spectrometry and Metabolomics Core (https://rtsf.natsci.msu.edu/mass-spectrometry/). Diluted urine samples were injected onto an Acquity UPLC BEH Amide column (1.7 µm, 2.1 × 100 mm) (Waters, Milford, MA) maintained at 50 °C on a Waters ACQUITY UPLC systems (Waters). Mobile phase A was 50 mM ammonium acetate buffer (pH = 9.6) and mobile phase B was acetonitrile. […]
Data analysis including peak integration was performed using MAVEN[75]. […] Fractional excretion of each probe was calculated using: (probe concentration from MS X total urine volume excreted)/probe input. […]

Details of data set [4]: method as in PMID 19660807, PMID 8145287. The settings on record: humans; cited from earlier work.

`Clc1cc2c(cc1Cl)Oc1cc(Cl)c(Cl)cc1O2` [TCDD, 2,3,7,8-tetrachlorodibenzo-p-dioxin]: in data set [1], the “Serum alkaline phosphatase (ALP) activity” value is “unchanged”. In data set [2] (feces, TCDD), the “Shift of fecal bile acid mixture HIx” value is on record as “moderate increase in hydrophobicity”. Besides, the “Shift of hepatic bile acid mixture HIx” value in data set [2] (liver, 3–30 µg/kg TCDD every 4 d for 28 d) is “toward greater hydrophobicity”. The “Shift of serum bile acid mixture HIx” value in data set [2] (serum, TCDD every 4 d for 28 d) is recorded as “more hydrophilic”. Also, in data set [3], the “Permeability of the small intestine (lactulose-to-mannitol ratio)” value is on record as “unaffected”. Further, the Half-life in data set [4] was 1–11 years.
